Measurements reported in patent US10092648B2, “Selective glucagon-like-peptide-2 (GLP-2) analogues” (Zealand Pharma A/S, priority 2006, dated 2018).

Columns and labels:
male C57BL mice [1] = assay: In vivo stimulation of stomach growth, 200 nmol/kg (Example 12)
Description: The effects of the test compounds according to the invention were determined based on the ability of the peptides to selectively increase stomach mass, relative to vehicle control. The ability of the present compounds (ZP2395, ZP2396, ZP2400, ZP2412, ZP2394 and ZP2401) to selectively stimulate stomach mass, relative to colon mass was determined in male C57BL mice. Individual groups (n=6-10) of mice were given 200 nmol/kg of each compound, s.c, once daily for three consecutive days. For comparison purposes other groups of animals were given either an equimolar dose of [[…]]GLP-2 or vehicle (phosphate buffered saline, pH 7.4) in the same dosing regimen. Twenty-four hours after the last dose of compound had been given the mice were sacrificed and the stomach and small intestine (from the pylorus to the ileocaecal junction) emptied and weighed. To correct for slight difference in body weight (BW), the organ mass of the stomach is presented relative to BW. […] To evaluate the differential growth pattern induced by ZP compounds, compared to [[…]]GLP-2, on the stomach, the stomach-colon sensitivity index of compound X was calculated as: (Stomach/Colon)x/Stomach/(Colon)[[…]]GLP-2% Compounds with a stomach/colon sensitivity greater than or equal to 1.05 were considered relatively selective for the stomach.

male C57BL mice [2] = assay: In vivo stimulation of intestinal growth, 200 nmol/kg (Example 11); conditions: for Sensitivity index Si/Colon: relative to 1559
Description: The ability of further compounds to selectively stimulate small intestinal mass, relative to colon mass was determined in male C57BL mice. A similar protocol was used to that described above in Example 10 except that 200 nmol/kg of each compound was administered per day. Thus, individual groups (n=6-10) of mice were given 200 nmol/kg of each compound, s.c, once daily for three consecutive days. Other groups of animals were given either an equimolar dose of [[…]]GLP-2 (reference compound) or vehicle (phosphate buffered saline, pH 7.4; negative controls) in the same dosing regimen. Twenty-four hours after the last dose of compound the mice were sacrificed and the stomach, small intestine and the colon emptied and weighed.

[3] = 200 nmol/kg s.c. once daily for 3 days
[4] = 200 nmol/kg s.c. once daily for 3 days, relative to 1559
[5] = colon weight relative to body weight, relative to ZP1559
[6] = small intestine weight relative to body weight, relative to ZP1559

Row | Substance | Sto-BW, compared to 1559 in % (male C57BL mice [1]; [3]) [%] | Sensitivity index Stomach/Co (male C57BL mice [1]; [4]) | Sensitivity index Stomach/Co (male C57BL mice [1]; ratio Stomach-BW / Colon-BW) | Colon-BW, compared to 1559 in % (male C57BL mice [2]; [3]) [%] | Preferential stimulation of epithelial growth in the small intestine (summary) (male C57BL mice [2]; [3]) | SI-BW, compared to 1559 in % (male C57BL mice [2]; [3]) [%] | Selectivity for small intestinal mass relative to colon mass (FIG. 6) (male C57BL mice [2]; [3]) | Sensitivity index Si/Colon (male C57BL mice [2]; [3]) | Colon-BW, compared to 1559 in % (male C57BL mice [2]; [5]) [%] | SI-BW, compared to 1559 in % (male C57BL mice [2]; [6]) [%] | Organ selectivity (FIG. 8, unselective compounds) (male C57BL mice [2]; [3]) | Preferential stimulation of epithelial growth in the stomach (summary) (male C57BL mice [1]; [3]) | Selectivity for stomach mass relative to colon mass (FIG. 7) (male C57BL mice [1]; [3])
1 | H-HGEGSFSDELATILEALAAADFIAWLISTKITDKKKKKK-NH2 [ZP2384] | 100 | 0.85 | 0.85 | 118 | preferentially stimulating epithelial growth in the small intestine | 128 | selectively increase small intestinal mass, relative to colon mass | 1.08 | 118 | 128 |  |  | 
2 | H-HGEGSFSDELATILEALAAADFIAWLIATKITDKKKKKK-NH2 [ZP2402] | 102 | 0.90 |  | 113 |  | 110 |  | 0.97 |  |  | unselective for the small intestine, colon or stomach |  | 
3 | H-HGEGSFSDELKTILESLAAADFIEWLIQTKITDKKKKKK-NH2 [ZP2379] | 99 | 1.02 |  | 97 |  | 88 |  | 0.91 |  |  | unselective for the small intestine, colon or stomach |  | 
4 | H-HGEGSFSDELSTILEALAASDFISWLISTKITD-NH2 [ZP2398] | 102 | 1.05 | 1.05 | 97 | preferentially stimulating epithelial growth in the small intestine | 108 | selectively increase small intestinal mass, relative to colon mass | 1.11 | 97 | 108 |  |  | 
5 | H-HGEGSFSDELLTILELLAASDFISWLISTKITDKKKKKK-NH2 [ZP2394] | 109 | 1.14 | 1.14 | 96 |  | 105 |  | 1.09 | 96 | 105 |  | preferentially stimulating epithelial growth in the stomach | selectively increase stomach mass, relative to colon mass
6 | H-HGEGSFSDELKTILEKLAAKDFIKWLIKTKITDKKKKKK-NH2 [ZP2395] | 113 | 1.16 | 1.16 | 97 |  | 98 |  | 1.01 | 97 | 98 |  | preferentially stimulating epithelial growth in the stomach | selectively increase stomach mass, relative to colon mass
7 | H-HGEGSFSDELSTILEALAAADFIAWLIATKITD-NH2 [ZP2420] | 90 | 0.89 | 0.89 | 101 | preferentially stimulating epithelial growth in the small intestine | 112 | selectively increase small intestinal mass, relative to colon mass | 1.11 | 101 | 112 |  |  | 
8 | H-HGEGSFSDELATILEALAAADFISWLIATKITDKKKKKK-NH2 [ZP2411] | 106 | 0.95 | 0.95 | 111 | preferentially stimulating epithelial growth in the small intestine | 117 | selectively increase small intestinal mass, relative to colon mass | 1.05 | 111 | 117 |  |  | 
9 | H-HGEGSFSDELLTILELLAASDFISWLISTKITD-NH2 [ZP2400] | 111 | 1.05 | 1.05 | 106 |  | 106 |  | 1.00 | 106 | 106 |  | preferentially stimulating epithelial growth in the stomach | selectively increase stomach mass, relative to colon mass
10 | H-HGEGSFSDELSTILESLAAADFIAWLIATKITDKKKKKK-NH2 [ZP2403] | 107 | 0.98 |  | 109 |  | 110 |  | 1.01 |  |  | unselective for the small intestine, colon or stomach |  | 
11 | H-HGEGSFSDELATILEALAAADFIAWLISTKITD-NH2 [ZP2397] | 109 | 1.08 | 1.08 | 101 | preferentially stimulating epithelial growth in the small intestine | 122 | selectively increase small intestinal mass, relative to colon mass | 1.21 | 101 | 122 |  |  | 
12 | H-HGEGSFSDELLTILELLAALDFIAWLIATKITDKKKKKK-NH2 [ZP2416] | 96 | 1.04 |  | 92 |  | 89 |  | 0.97 |  |  | unselective for the small intestine, colon or stomach |  | selectively increase stomach mass, relative to colon mass
13 | H-HGEGSFSDELATILESLAASDFISWLISTKITD-NH2 [ZP2399] | 115 | 1.12 | 1.12 | 103 | preferentially stimulating epithelial growth in the small intestine | 119 | selectively increase small intestinal mass, relative to colon mass | 1.16 | 103 | 119 |  |  | 
14 | H-HGEGSFSDELETILEELAAEDFIEWLIETKITDKKKKKK-NH2 [ZP2378] | 94 | 0.97 |  | 97 |  | 91 |  | 0.94 |  |  | unselective for the small intestine, colon or stomach |  | 
